Source: US20070191420A1, “Kinase inhibitors” (Devgen NV, priority 2004, published 2007)
Structures can show the parent of a compound that is named as a salt.

Experiments:
Assay in all cases: Fluorescence polarization (FP) PKC inhibition assay, Protein Kinase C Assay Kit, Red (Invitrogen)
Type in all cases: biochemical
PKC epsilon = molecular target: T1, PKC epsilon (Homo sapiens, UniProt Q02156); conditions: enzyme 10 ng/ml, ATP 2.5 μM, substrate […] 1 μM
T1 construct: purchased Invitrogen 6906
T1 sequence (Q02156 1-737): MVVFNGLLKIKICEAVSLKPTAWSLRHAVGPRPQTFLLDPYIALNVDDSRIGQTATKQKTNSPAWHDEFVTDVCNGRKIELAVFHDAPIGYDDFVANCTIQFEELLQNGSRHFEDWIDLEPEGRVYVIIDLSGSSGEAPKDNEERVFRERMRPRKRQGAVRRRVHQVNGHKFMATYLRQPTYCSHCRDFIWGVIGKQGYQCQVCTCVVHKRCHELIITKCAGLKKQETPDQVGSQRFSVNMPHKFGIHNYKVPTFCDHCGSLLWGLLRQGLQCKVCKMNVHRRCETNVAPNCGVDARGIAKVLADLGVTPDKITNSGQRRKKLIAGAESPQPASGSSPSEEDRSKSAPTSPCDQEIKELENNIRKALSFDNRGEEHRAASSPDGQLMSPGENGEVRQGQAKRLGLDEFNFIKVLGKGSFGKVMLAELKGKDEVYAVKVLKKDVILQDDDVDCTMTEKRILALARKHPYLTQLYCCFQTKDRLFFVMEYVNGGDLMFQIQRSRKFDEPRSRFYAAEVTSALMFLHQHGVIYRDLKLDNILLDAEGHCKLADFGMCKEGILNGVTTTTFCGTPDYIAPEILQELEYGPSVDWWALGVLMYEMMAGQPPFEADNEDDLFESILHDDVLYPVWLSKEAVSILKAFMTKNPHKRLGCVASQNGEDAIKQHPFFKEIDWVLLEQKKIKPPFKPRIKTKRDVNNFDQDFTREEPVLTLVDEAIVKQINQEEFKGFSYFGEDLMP
Protocol: (§1) The substrate used was […]
(§2) To perform the assay, 2 μl of a solution of the compound to be tested in DMSO (at each concentration) was added to 6 μl of a solution of the enzyme in 10 mM HEPES, 5 mM dithiotreitol, 0.1% Triton X-100, pH 7,4.
(§3) After incubating for 30 minutes at room temperature, 4 μl of a mixture of ATP and the protein substrate in 60 mM HEPES (pH7.4), 15 mM MgCl2, 0.3 mM CaCl2, 0.06% NP40 was added.
(§4) After incubating for 80 minutes at room temperature, 3 μl of a mix solution of 500 mM EDTA (stop solution) and the Rhodamine-based PKC Red Tracer (from the Protein Kinase C Assay Kit) in BGG/phosphate buffer (pH7.4) with 0.02% NaN3 and 0.1% Triton X-100 was added and 5 μl of a the Anti-Phosphoserine antibody (also from the Protein Kinase C Assay Kit) in BGG/phosphate buffer (pH7.4) with 0.02% NaN3.
(§5) The results were fitted to a curve using the XL-Fit algorithm and IC50 values were calculated for each fitted curve, again using the XL-Fit algorithm.

PKC gamma = molecular target: T2, PKC gamma (Homo sapiens, UniProt P05129); conditions: enzyme 20 ng/ml, ATP 2.5 μM, substrate […] 1 μM
T2 construct: purchased Invitrogen 9343
Protocol: as §1, §2, §3, §4, §5

PKC theta = molecular target: T3, PKC theta (Homo sapiens, UniProt Q04759); conditions: enzyme 20 ng/ml, ATP 2.5 μM, substrate […] 1 μM
T3 construct: purchased Invitrogen 7101
Protocol: as §1, §2, §3, §4, §5

PKC zeta = molecular target: T4, PKC zeta (Homo sapiens, UniProt Q05513); conditions: enzyme 20 ng/ml, ATP 2.5 μM, substrate […] 1 μM
T4 construct: purchased Invitrogen 9232
T4 sequence (Q05513 1-592): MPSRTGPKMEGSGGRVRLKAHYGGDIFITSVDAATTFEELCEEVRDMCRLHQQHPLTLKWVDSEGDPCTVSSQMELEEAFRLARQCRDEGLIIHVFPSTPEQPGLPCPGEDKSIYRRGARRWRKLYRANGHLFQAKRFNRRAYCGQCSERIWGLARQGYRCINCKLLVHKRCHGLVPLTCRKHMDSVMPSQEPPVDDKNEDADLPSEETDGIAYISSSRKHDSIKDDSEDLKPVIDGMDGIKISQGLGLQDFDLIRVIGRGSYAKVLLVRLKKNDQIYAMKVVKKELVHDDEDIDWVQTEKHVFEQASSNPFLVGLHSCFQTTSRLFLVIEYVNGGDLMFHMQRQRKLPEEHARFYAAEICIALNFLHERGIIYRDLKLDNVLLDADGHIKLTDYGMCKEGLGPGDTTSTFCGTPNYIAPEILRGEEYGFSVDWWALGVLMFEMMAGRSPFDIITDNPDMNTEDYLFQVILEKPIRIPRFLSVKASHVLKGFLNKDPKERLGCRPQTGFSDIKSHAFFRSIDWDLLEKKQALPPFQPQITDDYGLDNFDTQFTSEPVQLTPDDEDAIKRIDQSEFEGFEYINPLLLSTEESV
Protocol: as §2, §3, §4, §5

T3 sequence (Q04759 whole entry): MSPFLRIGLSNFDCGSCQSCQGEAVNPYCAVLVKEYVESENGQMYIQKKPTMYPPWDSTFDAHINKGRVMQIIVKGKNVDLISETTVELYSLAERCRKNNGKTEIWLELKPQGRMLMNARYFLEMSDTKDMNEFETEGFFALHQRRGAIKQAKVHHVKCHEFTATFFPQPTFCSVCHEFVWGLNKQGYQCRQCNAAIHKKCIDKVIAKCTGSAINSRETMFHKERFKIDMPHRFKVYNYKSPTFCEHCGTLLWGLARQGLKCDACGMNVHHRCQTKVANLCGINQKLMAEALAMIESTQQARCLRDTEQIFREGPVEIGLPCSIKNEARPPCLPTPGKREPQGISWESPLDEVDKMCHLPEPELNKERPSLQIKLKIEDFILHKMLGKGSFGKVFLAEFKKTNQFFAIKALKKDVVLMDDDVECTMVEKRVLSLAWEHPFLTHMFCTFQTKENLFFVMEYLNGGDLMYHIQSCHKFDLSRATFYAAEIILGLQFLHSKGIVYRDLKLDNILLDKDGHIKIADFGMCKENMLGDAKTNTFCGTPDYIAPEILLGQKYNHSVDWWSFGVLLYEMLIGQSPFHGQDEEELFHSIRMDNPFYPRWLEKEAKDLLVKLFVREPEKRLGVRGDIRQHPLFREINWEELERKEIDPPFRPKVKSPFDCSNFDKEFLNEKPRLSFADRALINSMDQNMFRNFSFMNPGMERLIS

| SMILES | IC50 (PKC epsilon) [µM] | IC50 (PKC gamma) [µM] | IC50 (PKC theta) [µM] | IC50 (PKC zeta) [µM] |
| --- | --- | --- | --- | --- |
| O=C(Nc1ccncc1)c1ccc(C2CCCCN2)cc1 (centres unmarked) [Compound 31, 4-piperidin-2-yl-N-pyridin-4-yl-benzamide dihydrochloric acid salt] | 3.7 | > 100 | 8.04 | > 100 |
| O=C(Nc1ccnc2[nH]ccc12)c1ccc2c(c1)CCNC2 [Compound 43] | 9.9 | 21.8 | 8.6 | > 100 |
| NCc1ccc(-c2nc(-c3ccncc3)no2)cc1 [Compound 13, 4-(3-pyridin-4-yl-[1,2,4]oxadiazol-5-yl-benzylaminedihydrochloric acid salt] | > 100 | > 100 | > 100 | > 100 |
| NC[C@H]1CC[C@H](C(=O)Nc2cccnc2)CC1 [Compound 6, Trans-4-aminomethyl-cyclohexanecarboxylic acid pyridin-3-ylamide] | > 100 | > 100 | > 100 | > 100 |
| NCc1ccc(S(=O)(=O)Nc2ccncc2)cc1 [Compound 10, 4-aminomethyl-N-pyridin-4-yl-benzenesulfonamide] | > 100 | > 100 | > 100 | > 100 |
| O=C(Nc1ccncc1)c1ccc2c(c1)CCNC2 [Compound 32, 1,2,3,4-tetrahydro-isoquinoline-6-carboxylic acid pyridinedin-4-yl-amide dihydrochloric acid salt] | 30.5 | > 100 | 31.6 | > 100 |
| NC[C@H]1CC[C@H](C(=O)Nc2ccncc2)CC1 [Compound 19, Trans-4-aminomethyl-cyclohexanecarboxylic acid pyridin-4-ylamide] | 5.12 | > 100 | 7.35 | 24.3 |
| NC1CCCc2cc(C(=O)Nc3ccncc3)ccc21 (centres unmarked) [Compound 29] | 6.1 | > 100 | 13.7 | > 100 |
| O=C(Nc1ccncc1)c1ccc(C2=NCCN2)cc1 [Compound 33, 4-(4,5-dihydro-1H-imidazol-2-yl)-N-pyridin-4-yl-benzamide] | 62 | > 100 | 53.5 | > 100 |
| CC(C)(C)C1CCC(C(=O)Nc2ccncc2)CC1 (centres unmarked) [Compound 2, 4-tert-butyl-cyclohexanecarboxylic acid pyridine-4-ylamide] | > 100 | > 100 | > 100 | > 100 |
| O=C(Nc1ccncc1)c1ccc(C2CCCN2)cc1 (centres unmarked) [Compound 30, N-pyridin-4-yl-4-pyrrolidin-2-yl-benzamide dihydrochloric acid salt] | 9.8 | > 100 | 17.2 | > 100 |

Results, then the compound that gave them:

| IC50 (PKC epsilon) [µM] | IC50 (PKC gamma) [µM] | IC50 (PKC theta) [µM] | IC50 (PKC zeta) [µM] | SMILES |
| --- | --- | --- | --- | --- |
| 6.23 | > 100 | 9.14 | 51.4 | NCc1ccc(C(=O)Nc2ccncc2)cc1 [Compound 20, 4-aminomethyl-N-pyridin-4-yl-benzamide dihydrochloric acid salt] |
| 9.5 | > 100 | 28.9 | > 100 | NC(c1ccc(F)cc1)c1ccc(C(=O)Nc2ccncc2)cc1 (centres unmarked) [Compound 36, 4-[1-amino-(4-fluorophenyl)-methyl]-N-pyridin-4-yl-benzamide dihydrochloric acid salt] |
| > 100 | > 100 | > 100 | > 100 | CC(O)c1ccc(C(=O)Nc2ccncc2)cc1 (centres unmarked) [Compound 8, 4-(1-hydroxy-ethyl)-N-pyridin-4-yl-benzamide] |
| 0.72 | 35.9 | 3.9 | 41.5 | NC(c1ccc(C(=O)Nc2ccncc2)cc1)C1CC1 (centres unmarked) [Compound 26] |
| 2.6 | > 100 | 7.7 | > 100 | NC(c1ccc(C(=O)Nc2ccncc2)cc1)C1CCCCC1 (centres unmarked) [Compound 28] |
| 0.65 | > 30 | 2.91 | 25.4 | CCC(N)c1ccc(C(=O)Nc2ccncc2)cc1 (centres unmarked) [Compound 24, 4-(1-amino-propyl)-N-pyridin-4-yl-benzamide dihydrochloric acid salt] |
